From ChEMBL document CHEMBL1147360, “Conioidines A and B, novel DNA-interacting pyrrolidines from Chamaesaracha conioides” (J Nat Prod, 1993) come the findings set out here.

For experiment [1], the system named is Calf thymus DNA. The experiment is described as follows: Binding affinity to calf thymus DNA. Format: nucleic-acid assay, Bos taurus.
Experiment [2] relates to KB. The experiment is described as follows: Cytotoxicity against human KB cells after 48 hrs. Format: functional, cell-based.
Experiment [3] has as its system KB. Nature of the experiment: Cytotoxicity against human KB cells after 48 hrs in presence of exogenous DNA. The experiment is classed as functional, cell-based.

Converted amounts (≈) assume the structure as drawn.

Regarding `C/C=C(\C)C(=O)OC(C)CC1CCCN1C(=O)CCCCCCCCC` (stereo not drawn) [CONIOIDINE A], binding in experiment [1] was put at a Kd of 2800 nM. In addition, the IC50 in experiment [2] was 0.67 µg/mL (≈ 1.83 µM); in experiment [3] it was 2.1 µg/mL.
